Where “and” joins values, the source holds several entries; their conditions need not be identical. Identical values can stand only once. Toxic doses and inconclusive results are not listed. Rule for the calls: active = survival T/C of 150% or more; inactive = T/C below 125% in these data.
Tested on: P388 leukemia ip, CD2F1 mice, survival T/C
Experiment: NCI In Vivo Anticancer Drug Screen. Data for tumor model P388 Leukemia (intraperitoneal) in CD2F1 (CDF1) mice
Details: endpoint: median survival time, higher = longer survival
How it was run: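 Mice carrying the transplanted tumor received test compound or vehicle. Survival was recorded in each group, and the value is the treated-group measurement divided by that of the vehicle-treated control group.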

Measured: T/C

CC(C)NCc1ccccc1Sc1ccccc1CNC(C)C
inactive: dose: 25.0 mg/kg/injection, schedule: Q01DX001 (ip), vehicle: saline with Tween-80 99 % of control | dose: 25.0 mg/kg/injection, schedule: Q04DX002 (ip), vehicle: saline 103 % of control | dose: 50.0 mg/kg/injection, schedule: Q01DX001 (ip), vehicle: saline with Tween-80 98 % of control | dose: 50.0 mg/kg/injection, schedule: Q04DX002 (ip), vehicle: saline 103 % of control | dose: 100.0 mg/kg/injection, schedule: Q01DX001 (ip), vehicle: saline with Tween-80 98 % of control | dose: 100.0 mg/kg/injection, schedule: Q04DX002 (ip), vehicle: saline 103 % of control

COc1ccccc1-n1c(C)nc2[nH]ncc2c1=O
inactive: dose: 50.0 mg/kg/injection, schedule: Q01DX005 (ip), vehicle: Klucel (hydroxypropylcellulose) (HPC) 101 % of control | dose: 100.0 mg/kg/injection, schedule: Q01DX005 (ip), vehicle: Klucel (hydroxypropylcellulose) (HPC) 97 % of control | dose: 200.0 mg/kg/injection, schedule: Q01DX005 (ip), vehicle: Klucel (hydroxypropylcellulose) (HPC) 96 % of control

CCCCCC(Cn1ccnc1)c1ccccc1Br (centres undefined)
inactive: dose: 25.0 mg/kg/injection, schedule: Q04DX003 (ip), vehicle: saline with Tween-80 106 % of control | dose: 33.0 mg/kg/injection, schedule: Q04DX003 (ip), vehicle: saline with Tween-80 107 % of control | dose: 50.0 mg/kg/injection, schedule: Q04DX003 (ip), vehicle: saline with Tween-80 100 % of control and 108 % of control and 122 % of control | dose: 75.0 mg/kg/injection, schedule: Q04DX003 (ip), vehicle: saline with Tween-80 92 % of control | dose: 100.0 mg/kg/injection, schedule: Q04DX003 (ip), vehicle: saline with Tween-80 106 % of control and 111 % of control and 90 % of control
